pEC50, pIC50: −log10 of the molar value. Calls of active or inactive are those of the source. The rule behind the calls is not given here.
Tests used:
[1] = test system: TPC1; assay: Antiproliferative activity against human TPC1 cells; assay type: functional, cell-based
[2] = test system: HCT-116; assay: Antiproliferative activity against human HCT116 cells at 1 uM; assay type: functional, cell-based
[3] = test system: HCT-116; assay: Toxicity in human HCT116 cells at =< 10 uM; assay type: cell-based
[4] = test system: TPC1; assay: Toxicity in human TPC1 cells at =< 10 uM; assay type: cell-based
[5] = biological target: T1, Proto-oncogene tyrosine-protein kinase receptor Ret (Homo sapiens, UniProt P07949); details: TPC1, 50 to 200 nM
Description: Inhibition of RET in human TPC1 cells expressing constitutively active RET fusion protein assessed as reduction in ERK1/2 phosphorylation at 50 to 200 nM by Western blotting

[6] = biological target: T1, Proto-oncogene tyrosine-protein kinase receptor Ret; details: MCF7, 100 nM
Description: Inhibition of RET in serum starved human MCF7 cells assessed as reduction in GDNF-induced ERK1/2 phosphorylation at 100 nM added 30 mins before GDNF stimulation and incubated for further 45 mins by Western blotting

[7] = biological target: T1, Proto-oncogene tyrosine-protein kinase receptor Ret; details: TPC1, 200 nM
Description: Inhibition of RET in human TPC1 cells expressing constitutively active RET fusion protein assessed as reduction in nuclear translocation of ERK1/2 at 200 nM by immunofluorescence microscopy

[8] = biological target: T2, Mitogen-activated protein kinase; ERK1/ERK2 (Homo sapiens) (UniProt P27361+P28482); assay: Inhibition of nuclear translocation of ERK1/2 in human HCT116 cells at 200 nM by immunofluorescence microscopy; assay type: cell-based; details: HCT-116
[9] = biological target: T1, Proto-oncogene tyrosine-protein kinase receptor Ret; assay: Inhibition of RET by commercial radiometric assay
[10] = test system: TPC1; assay: Antiproliferative activity against human TPC1 cells at 1 uM; assay type: functional, cell-based
[11] = biological target: T2, Mitogen-activated protein kinase; ERK1/ERK2 (Homo sapiens); assay: Inhibition of ERK1/2 phosphorylation in human HCT116 cells at 50 to 200 nM by Western blotting; assay type: cell-based; details: HCT-116
[12] = test system: HCT-116; assay: Antiproliferative activity against human HCT116 cells; assay type: functional, cell-based

T1 sequence (P07949 whole entry): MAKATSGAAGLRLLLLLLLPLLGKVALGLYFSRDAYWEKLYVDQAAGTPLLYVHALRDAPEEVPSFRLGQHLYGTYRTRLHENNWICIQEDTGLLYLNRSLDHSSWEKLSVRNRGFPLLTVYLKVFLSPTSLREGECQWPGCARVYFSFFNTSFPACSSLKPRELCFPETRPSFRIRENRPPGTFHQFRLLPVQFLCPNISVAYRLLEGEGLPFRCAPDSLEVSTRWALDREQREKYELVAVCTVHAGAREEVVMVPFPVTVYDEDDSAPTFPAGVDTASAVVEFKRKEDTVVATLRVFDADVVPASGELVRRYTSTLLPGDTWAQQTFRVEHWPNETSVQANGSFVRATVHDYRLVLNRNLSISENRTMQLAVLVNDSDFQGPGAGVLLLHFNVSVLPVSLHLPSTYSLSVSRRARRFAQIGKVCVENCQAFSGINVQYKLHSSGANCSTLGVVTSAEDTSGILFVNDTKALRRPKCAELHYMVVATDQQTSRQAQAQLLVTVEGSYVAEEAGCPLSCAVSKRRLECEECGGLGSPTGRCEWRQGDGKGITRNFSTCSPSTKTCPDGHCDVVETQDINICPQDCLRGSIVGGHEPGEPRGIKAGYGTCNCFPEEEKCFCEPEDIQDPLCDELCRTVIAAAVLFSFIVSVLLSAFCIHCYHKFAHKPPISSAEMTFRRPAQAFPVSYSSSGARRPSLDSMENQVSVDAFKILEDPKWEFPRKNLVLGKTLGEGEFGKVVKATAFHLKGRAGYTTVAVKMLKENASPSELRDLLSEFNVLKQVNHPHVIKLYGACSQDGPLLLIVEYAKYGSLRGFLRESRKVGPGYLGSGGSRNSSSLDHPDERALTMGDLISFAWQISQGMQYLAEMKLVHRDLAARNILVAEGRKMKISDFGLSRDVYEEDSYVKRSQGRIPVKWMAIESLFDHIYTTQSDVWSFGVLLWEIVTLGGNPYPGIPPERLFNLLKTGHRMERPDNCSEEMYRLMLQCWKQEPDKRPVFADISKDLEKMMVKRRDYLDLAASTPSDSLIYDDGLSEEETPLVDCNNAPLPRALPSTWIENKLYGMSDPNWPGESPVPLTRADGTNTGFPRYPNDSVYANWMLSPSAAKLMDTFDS
T2 sequence (P27361 whole entry, looked up): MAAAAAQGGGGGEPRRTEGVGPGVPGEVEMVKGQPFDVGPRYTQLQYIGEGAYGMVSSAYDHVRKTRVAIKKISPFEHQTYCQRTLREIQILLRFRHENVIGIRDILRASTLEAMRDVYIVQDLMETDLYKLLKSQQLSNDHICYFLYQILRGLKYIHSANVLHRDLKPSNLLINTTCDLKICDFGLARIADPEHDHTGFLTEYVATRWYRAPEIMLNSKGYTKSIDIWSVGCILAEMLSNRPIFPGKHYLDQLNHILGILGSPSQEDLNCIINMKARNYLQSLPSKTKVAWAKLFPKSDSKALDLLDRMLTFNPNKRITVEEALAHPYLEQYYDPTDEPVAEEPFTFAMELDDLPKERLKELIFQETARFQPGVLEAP
T2 sequence (P28482 whole entry, looked up): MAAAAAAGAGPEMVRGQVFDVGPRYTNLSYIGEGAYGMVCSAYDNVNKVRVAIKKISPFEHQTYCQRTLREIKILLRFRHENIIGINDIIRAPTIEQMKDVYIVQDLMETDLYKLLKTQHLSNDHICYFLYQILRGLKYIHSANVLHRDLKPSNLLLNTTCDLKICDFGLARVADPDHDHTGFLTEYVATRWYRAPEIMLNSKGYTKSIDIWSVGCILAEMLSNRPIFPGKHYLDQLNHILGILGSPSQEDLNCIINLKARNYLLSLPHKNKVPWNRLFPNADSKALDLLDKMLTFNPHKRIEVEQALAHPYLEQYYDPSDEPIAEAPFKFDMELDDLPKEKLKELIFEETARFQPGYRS

| inhibition [5] | inhibition [6] | inhibition [7] | inhibition [8] | pIC50 [9] | inhibition [11] | pEC50 [12] | Compound | pEC50 [1] | inhibition [2] | Activity [3] | Activity [4] | inhibition [10] |
| --- | --- | --- | --- | --- | --- | --- | --- | --- | --- | --- | --- | --- |
|  |  |  |  |  |  |  | CNC(=O)c1cc(Oc2ccc(NC(=O)Nc3ccc(Cl)c(C(F)(F)F)c3)cc2)ccn1 [SORAFENIB] | 5.59 |  |  |  |  |
| Active | Active | Active | inactive | 8.10 | inactive | 5.62 | CC(C)n1nc(C#Cc2ccccc2)c2c(N)ncnc21 | 5.48 | inactive | Non-toxic | Non-toxic | Active |

— ChEMBL document CHEMBL2057193, “Preparation of 3-substituted-1-isopropyl-1H-pyrazolo[3,4-d]pyrimidin-4-amines as RET kinase inhibitors” (J Med Chem, 2012)
